Experimental data: patent US10098352B2, “Honeybee repellents and uses thereof” (Inscent, Inc., priority 2011, dated 2018)

Tests used:
[1] = test system: Apis mellifera Carniolan foraging worker honeybees; test: Choice test in free-flight box apparatus; format: in vivo; details: amount 0.5%; percent food-weight change vs corresponding dishes in preceding test; negative = increase in food consumption
Method: To determine whether living honeybees will choice to move towards a source of a candidate compound, these compounds were assayed using a choice test in a free-flight box apparatus.
All tests were done in a free-flight box apparatus. The apparatus comprises a 244 cm long×46 cm deep×30 cm high clear plastic box including two equally-sized independent testing chambers, each with 10 cm diameter air inlets that admit filtered room air, separated by a smaller central chamber with a screened air outlet to each testing chamber. Air can be pulled through the sealed box via a 10 cm diameter duct from the air outlet using an AQE Fume Fighter 500 fume extractor (BPA Air Quality Solutions, LLC, Charleston, S.C.), which removes the test odors using activated charcoal and HEPA filters. The box is housed in an environmentally controlled room with overhead illumination timed to correspond to the current ambient light cycle including 2 additional sets of lights timed to approximate crepuscular lighting conditions. The bottom of the apparatus was lined with clean absorbent paper marked with a 4×9 grid pattern, forming 12 cm×12 cm squares with marked coordinates.
Apis mellifera Carniolan foraging worker honeybees were obtained from a local apiary (typically 60 bees per shipment). Thirty honeybees were put into each testing chamber and were allowed to acclimate for 24 hours with food and water freely available.
At the beginning of each test day all food was removed from the test chamber, but water was continually available throughout all tests. For each test, approximately 0.3 g of organic, raw orange blossom honey was added to each clean small plastic weigh boat (Cole-Palmer). The honey boats were placed in small plastic culture dishes, which were distributed in the marked squares in the chambers. The positions of the dishes on the grid for a set of trials was chosen to avoid the bees' preferred resting area so that they had to find the food actively, but the same dish positions were maintained for a given set of trials. […] The honey in each boat was weighed on an analytical balance before and after the test, with the screened sample as a control for evaporative loss. The fume extractor was left off during the experimental trails, and was turned on to clear the air after the test dishes were covered and removed from the chamber at the end of each trial.
Based on the observation that bees tend to return to dishes in the same position where they have fed before, each set of trials with each group of bees began with “Pattern Identification” tests to see which dishes lose the most weight, reflecting the most feeding. Once bees were consuming an acceptable amount in 10-15 min, typically in 1-2 trials, we began a set of test compound trials. The test compound was pipetted onto pieces of filter paper placed on the dish bottom below the boat containing a fresh, weighed honey sample so that the test compound was inaccessible to the bees. We used 2 μL of a candidate compound at a concentration of 0.05-0.5%, in Triton X-100 or paraffin oil, on each of four pieces of filter paper per dish. The test-solution dishes were set at the same positions as the one or two dishes favored in the preceding Pattern Identification trial. To eliminate interference from the solvent, the other dishes without the test substance contained the same volume of the appropriate solvent on filter papers as the test solution dishes. The bees were allowed to feed for 10-15 minutes. Bee movements were recorded by a small, wide-angle digital video camcorder (HD Hero 960; GoPro, Halfmoon Bay, Calif.) placed on a tripod in front of the test chamber. The bees were given a brief rest while the honey was weighed and a second test was begun with fresh dishes, except that the test compound-containing dish or dishes were placed at whichever positions were most visited in the preceding test. […] The bees were then rested for 1-3 hours and a subsequent set of trials begun with another Pattern Identification. […]

[2] = cited from earlier work
OBP2 = test: Fluorescent-quench ligand-protein-binding assay (OBP2 binding screen); set-up: species or system Apis mellifera
Source text: To identify a honeybee repellent disclosed herein, candidate compounds were screened based upon the fact that 2-heptanone is an established repellent of bees. 2-heptanone is thought to mediate its behavioral response through binding to a specific odorant-binding protein called OBP2. Therefore compounds that bind OBP2 have the potential to act as odor “mimics” of 2-heptanone. By utilizing a fluorescent-quench, ligand-protein-binding assay, 30,000 compounds from the DIVERSET® library (ChemBridge Corp., San Diego, Calif.), a chemical library, were screened and over 150 candidate compounds were isolated that bind OBP2 (Table 1). Such assays are generally known in the art. See, e.g., Briand, et al., Ligand-Binding Properties and Structural Characterization of a Novel Rat Odorant-Binding Protein Variant, Eur. J. Biochem. 267(10): 3079-3089 (2000); Briand, et al., Ligand Binding and Physico-Chemical Properties of ASP2, A Recombinant Odorant-Binding Protein From Honeybee (Apis mellifera L.), Eur. J. Biochem. 268(3): 752-760 (2001); Briand, et al., Characterization of a Chemosensory Protein (ASP3c) from Honeybee (Apis mellifera L.) as a Brood Pheromone Carrier, Eur. J. Biochem. 269(18): 4586-4596 (2002), each of which is hereby incorporated by reference in its entirety.

[3] = test system: Apis mellifera Carniolan foraging worker honeybees; test: Proboscis extension response (PER) assay in bees conditioned to 2-heptanone; format: in vivo; details: final compound concentration 0.5% (TRITON X-100/water), 4 s exposure; only bees PER-positive to 2-heptanone and negative to controls counted
Method: To determine whether a living honeybee can recognize a candidate compound, these compounds were tested using a proboscis extension response (PER) assay using classical conditioning approaches. Proboscis extension response conditioning is a case of appetitive learning, in which bees learn to associate odor stimuli with sucrose reward in the laboratory. In this case, bees were conditioned to produce a PER to 2-heptanone as the conditioned stimulus and a sugar reward as the unconditioned stimulus. These trained bees were then exposed to an odor pulse of a candidate compound to test whether a candidate compound would also produce a PER. If the candidate compound “mimics” 2-heptanone then the honeybee will extend its proboscis.
For conditioning procedures, Apis mellifera Carniolan foraging worker honeybees were obtained from a local apiary (typically 60 bees per shipment). The honeybees were held overnight in insect cages with food and water freely available, in an environmentally controlled room on a light cycle similar to the ambient cycle at the time of the assay.
For conditioning procedures, all tests were done in an odorant delivery apparatus set inside a fume hood. The apparatus comprised a set of open-ended, horizontal, 3 cm diameter by 10 cm long plastic tubes. Each tube was designed where a honeybee could be positioned at the distal end of a tube, with the opening at the other end of the tube located proximal to an inlet of the fume hood. To deliver an odorant, room air was pumped by a diaphragm pump through a particle filter via 0.25 inch plastic tubing at approximately 0.7 m/sec. The air flow passes into the headspace above an odorant (0.5% [v/v]2-heptanone dissolved in odorless light paraffin oil) contained in a 100 mL bottle. The headspace air then passes through another plastic tube to a manifold of 4-way valves, each of which was attached near the proximal end of a plastic tube containing a bee. Each bee was exposed separately for a desired time period to the odorant by opening and closing the appropriate valve. When each valve was closed, the odor was flushed away immediately by the continuous fume hood air stream.
To train a honeybee to respond to a conditioned and unconditioned stimuli, bees were placed, without anesthesia, in individual 1.5 mL micro-centrifuge holding tubes and held overnight without access to food or water. The holding tubes containing the starved bees were placed in racks in groups of eight. One rack at a time was placed behind the odorant delivery apparatus so that each bee's head is centered at the distal end of a horizontal plastic tube. Each bee was exposed to the 2-heptanone odorant alone for four seconds, and then while being fed an 80% sucrose solution for and additional three seconds. The sucrose solution was delivered on a piece of saturated filter paper held in forceps. […] Positive and negative responses were recorded. A positive PER was scored when a bee extended its proboscis before the sucrose appeared. In a typical trial, 48 individual bees were subjected to conditioning. Six rounds of training were done before testing began, and typically a majority of the bees were successfully conditioned by the second or third round of training.
After conditioning, honeybees were tested with the candidate compounds the same day or on the following day or, most commonly, both. When held overnight, bees were fed with sucrose and kept in their holding tubes. When tested the day after training, bees were given one or more rounds of conditioning with 2-heptatone to refresh their memories. Candidate compounds stocks were made at 5% (w/v) in polyoxyethylene octyl phenyl ether (TRITON® X-100), a non-ionic detergent/surfactant, and stored at 4° C. This detergent is similar to substances used as carriers for a variety of commercial pest-control agents, can act as a solvent for both hydrophilic and hydrophobic substances, and is itself nearly odorless. […]

Row | SMILES | Repellence Score [1] [%] | solubility in alcohol or ether ([2]; alcohol or ether) | solubility in water ([2]; water) | OBP2 binding characteristic of compound (OBP2) | 2-heptanone positive bees testing positive to compound [3] [%]
1 | CCCCCC(C)=O [2-heptanone] | 54.6 | soluble | very slightly soluble |  | 
2 | COc1ccc(C(=O)C=Cc2c(C)[nH]c3ccccc23)cc1 [compound 1, 1-(4-methoxyphenyl)-3-(2-methyl-1H-indol-3-yl)-2-propen-1-one] | 57.8 |  |  | Moderate (Moderate, indicates that 50% or less of the compound bound to OBP2.) | 26.6
3 | O=C(NNC1=C(C(=O)C(F)(F)F)CCC1)c1ccc(Br)cc1 [compound 36] | 56.3 |  |  | Moderate (Moderate, indicates that 50% or less of the compound bound to OBP2.) | 24.3
4 | O=C(Nc1ccccc1C(=O)Nc1ccccc1Cl)c1ccccc1 [compound 10, 2-(benzoylamino)-N-(2-chlorophenyl)benzamide] | 45.6 |  |  | Moderate (Moderate, indicates that 50% or less of the compound bound to OBP2.) | 4.8
5 | O=C1OC(c2ccccc2)=NC1=Cc1cccs1 [compound 9, 2-phenyl-4-(2-thienylmethylene)-1,3-oxazol-5(4H)-one] | 43.3 |  |  | Moderate (Moderate, indicates that 50% or less of the compound bound to OBP2.) | 9.7
